Active and inactive are the calls of the source. No rule for the calls is given here.

In the assay the target is VIM-2 metallo-beta-lactamase (Pseudomonas aeruginosa) (UniProt Q932Y6). Description: VIM-2 metallo-beta-lactamase inhibitor potency, dose response, biochemical, epi-absorbance, common IMP-1/VIM-2 hits (AID 2754). The following applies: purified VIM-2 enzyme, absorbance substrate hydrolysis.
By IC50 is commonly meant the concentration at which inhibition is half-maximal. Consider `O=c1cc(C(F)(F)F)c2cc3c4c(c2o1)CCCN4CCC3`, for which the IC50 entry was “inactive”. The same measure for `COCCCn1c(=NC(=O)c2ccccc2)c(C#N)cc2c(=O)n3cccc(C)c3nc21`: > 59.6 µM (inactive). As to `O=C(Nc1ccc(C(F)(F)F)cc1)c1ccc(NC(=O)C2CCCO2)cc1` (stereo unspecified), the IC50 was > 59.6 µM (inactive). The same measure for `O=[N+]([O-])c1ccc(N2CCCCCC2)c2nonc12`: “inactive”. The same measure for `CCCCN(C)C1=CC2=CC(=C(C#N)C#N)CCC2CC1` (stereo unspecified): 4.07 µM.

Regarding `O=C1c2cccc3c(O)ccc(c23)C(=O)N1c1ccc(Cl)cc1`, the IC50 entry is “inactive”. The same measure for `Nc1ccc2c3c(cccc13)C(=O)N(c1ccccc1)C2=O`: “inactive”; for `O=c1ccc2c(-c3ccccc3)c3ccc(O)cc3oc-2c1`: 0.374 µM.

Consider `CCOc1ccc(/C=C2\CCCc3c2nc2ccccc2c3C(=O)O)cc1OC`, for which the IC50 entry was “inactive”.

Regarding `COc1ccc2c(Cl)c(C(=O)NCCCn3ccnc3)sc2c1Cl`, the IC50 was > 59.6 µM (inactive). Then `COC(=O)c1sccc1NC(=O)c1ccc(C#N)cc1`, with > 59.6 µM (inactive); and `CNc1ccc2c3c(cccc13)C(=O)N(C)C2=O`, with 3.06 µM; and `N#CC(C#N)=C1C=C2C=C(N3CCOCC3)CCC2CC1` (stereo unspecified), with 2.74 µM. The same measure for `O/C=c1\ccc2cccc3nc(C(F)(F)F)nc1c23`: 8.76 µM; for `CC(=O)Nc1ccc(N2C(=O)c3cccc4c(O)ccc(c34)C2=O)cc1`: “inactive”; for `CCCCn1c(=O)[nH]c2nc3cc(N)ccc3nc2c1=O`: “inactive”. Then `O=C(Nc1ccc2oc(-c3ccccc3F)nc2c1)c1ccc([N+](=O)[O-])o1`, with > 59.6 µM (inactive). Turning to `CC(C)C(CCN1C(=O)c2ccccc2C1=O)c1ccco1` (stereo unspecified), the IC50 result is “inactive”. The same measure for `COc1ccc(/C=C2\CCCc3c2nc2ccccc2c3C(=O)O)cc1OC`: “inactive”; for `CCOc1ccc(-c2cc(C(=O)NCCCn3ccnc3)c3cc(Br)ccc3n2)cc1`: > 59.6 µM (inactive). Then `Cc1cccc(N2C(=O)c3cccc4c(N)ccc(c34)C2=O)c1`, with “inactive”; and `CC(C)n1cc(/C=C/c2cc[n+](C)cc2)c2ccccc21`, with “inactive”.

On to `COc1cc(/C=C2/SC(=S)N(Cc3ccccc3)C2=O)cc(OC)c1O`, for which the IC50 was > 59.6 µM (inactive).

Take `COc1ccc(-c2cc(=O)oc3c(C)c(OCC(=O)NCCCn4ccnc4)ccc23)cc1`: the IC50 entry was “inactive”. The same measure for `CN1C(=O)/C(=C\c2ccc(N(C)C)cc2)OC1=S`: > 59.6 µM (inactive); for `CCN1CCN(C2=CC3=CC(=C(C#N)C#N)CCC3CC2)CC1` (stereo unspecified): 3.7 µM; for `COc1ccc(/C=C2/SC(c3ccc(C)cc3)=NC2=O)cc1OC`: > 59.6 µM (inactive). The same measure for `Cc1nn(-c2ccccc2)c(Cl)c1/C=C(\CC(=O)O)c1nc2ccccc2s1`: 9.26 µM. The same measure for `O=P(O)(O)c1cc(-c2ccccc2)oc1-c1ccccc1`: “inactive”; for `O=C1c2cccc3c(O)ccc(c23)C(=O)N1Cc1ccco1`: “inactive”; for `CCN(CC)C1=CC2=CC(=C(C#N)C#N)CCC2CC1` (stereo unspecified): 2.4 µM.

On to `CCOC(=O)c1c2c3c(cccc3n(C)c1=O)C(=O)c1ccccc1-2`, for which the IC50 entry is “inactive”. Then `CCN(CC)c1ccc(/C=C/C(=O)c2ccc(Br)cc2)cc1`, with 8.45 µM. The same measure for `CCN(CC)c1ccc2cc(C=O)c(=O)oc2c1`: “inactive”; for `CC(C)(C)c1ccc(-c2c(C(=O)O)c(C(=O)O)c3n2CSC3)cc1`: “inactive”; for `CN1C(=O)c2cccc3c(N)ccc(c23)C1=O`: 7.17 µM. The same measure for `Cc1nn(C)c(C)c1N1C(=O)c2cccc3c(N)ccc(c23)C1=O`: 8.99 µM; for `CCCCC(Sc1nc(N)c(NC(=O)c2ccco2)c(=O)[nH]1)C(=O)O` (stereo unspecified): > 59.6 µM (inactive); for `CCN(CC)c1ccc2cc(C(=O)NCc3ccc(F)cc3)c(=N)oc2c1`: > 59.6 µM (inactive). For `CCN(CC)c1ccc2cc(-c3nc4ccccc4[nH]3)c(=O)oc2c1`, the IC50 was 2.73 µM. Then `CN1CCN(C2=CC3=CC(=C(C#N)C#N)CCC3CC2)CC1` (stereo unspecified), with 3 µM; and `Cn1cc(/C=C(\C(=O)O)C(C(=O)O)=C2CCCCC2)c2ccccc21`, with “inactive”. Then `COc1cc(OC)c(-c2c3cc(O)c(=O)cc-3oc3cc(O)c(O)cc23)cc1OC`, with 5.11 µM; and `CC(=O)Oc1ccc2c(c1)Oc1cc(OC(C)=O)ccc1C21OC(=O)c2ccccc21`, with “inactive”. Then `O=C(CCN1C(=O)/C(=C/c2ccc(Cl)cc2)SC1=S)NCCCn1ccnc1`, with > 59.6 µM (inactive). In the case of `CN(C)/C=C1\C=C2C(=O)c3ccccc3N2C1=O`, the IC50 is 0.894 µM. Then `O=C1c2ccccc2-c2onc3ccc(NCCCn4ccnc4)c1c23`, with 1.72 µM. Then `Nc1cccc(N2C(=O)c3cccc4c(N)ccc(c34)C2=O)c1`, with “inactive”; and `N#CC(C#N)=C1C=C2C=C(N3CCCCCC3)CCC2CC1` (stereo unspecified), with 2.51 µM; and `Cc1ccc(Cn2c(C(C)Nc3nc(-c4ccc(C)cc4)cs3)nc3cc(Cl)c(Cl)cc32)cc1` (stereo unspecified), with “inactive”. Then `CCN1/C(=C/C=C/c2oc3ccc4ccccc4c3[n+]2CC)Oc2ccc3ccccc3c21`, with > 59.6 µM (inactive). Regarding `CCC(=C/c1sc2ccc3ccccc3c2[n+]1C)/C=C1\Sc2ccc3ccccc3c2N1C`, the IC50 was > 59.6 µM (inactive). The same measure for `CCOc1cc2c(cc1/C=C/c1noc(C)c1[N+](=O)[O-])OC(C)C2` (stereo unspecified): > 59.6 µM (inactive). Then `Cc1n[nH]c(C)c1N1C(=O)c2cccc3c(N4CCCCCC4)ccc(c23)C1=O`, with “inactive”. With `COc1ccccc1-c1csc(-n2ncc(C#N)c2N)n1`, the IC50 was > 59.6 µM (inactive). The same measure for `O=C1CCN2C=Nc3cccc4ccc1c2c34`: 9.22 µM; for `COCCCNc1c2c3c(cccc3[nH]c1=O)C(=O)c1ccccc1-2`: 1.84 µM; for `N#CC(C#N)=C1C=C2C=C(N3CCCCC3)CCC2CC1` (stereo unspecified): 2.33 µM.

For the compound `CCOC(=O)C1CCCN(c2ccc([N+](=O)[O-])c3nonc23)C1` (stereo unspecified), the IC50 entry was “inactive”. The same measure for `O=C1/C(=C\c2cc(Cl)c(O)c(Cl)c2)SC(=S)N1Cc1ccccc1`: “inactive”. The same measure for `COc1ccc(-c2occ(C(=O)O)c2C(=O)O)cc1`: “inactive”. The same measure for `CCN(CC)c1ccc2c(-c3ccc(S(=O)(=O)O)cc3S(=O)(=O)[O-])c3ccc(=[N+](CC)CC)cc-3oc2c1`: > 59.6 µM (inactive). For `CCc1cc(=O)oc2cc(C)c(CN3CCCC3)c(O)c12`, the IC50 was 6.96 µM.

Regarding `N=C1/C(=C\c2coc3ccccc3c2=O)C(=O)N=C2SC=CN12`, the IC50 entry is “inactive”.

As for `COc1ccccc1N1N=C(c2ccc([N+](=O)[O-])cc2)CC1c1ccccc1` (stereo unspecified), the IC50 is > 59.6 µM (inactive). Then `CCn1c(=S)sc2c(=O)n(CC(=O)Nc3ccccc3C(F)(F)F)c(C)nc21`, with > 59.6 µM (inactive). The same measure for `CN(/N=C/c1ccc(-c2ccc([N+](=O)[O-])cc2)o1)c1ccccc1`: > 59.6 µM (inactive); for `CCCCCCn1c(=O)[nH]c2nc3cc(N)ccc3nc2c1=O`: “inactive”. `Cc1ccc2[nH]cc(/C=C/c3cc[n+](C)cc3)c2c1`: the IC50 result was “inactive”.

Turning to `Nc1ccc(-c2c3ccc(=O)cc-3oc3cc(O)ccc23)cc1C(=O)O`, the IC50 was 4.47 µM.

Regarding `CCCN1C(=O)c2cccc3c(N4CCCCC4)ccc(c23)C1=O`, the IC50 was > 59.6 µM (inactive).

Source of the values: PubChem BioAssay AID2754 (The Scripps Research Institute Molecular Screening Center, 2010).
